The test system of one series is mice. Description: Mouse intradermal formalin test. It counts as in vivo. The following applies: formalin 4.5% into hind paw. As for the experimental part:
In this model, mice receive an injection of formalin (4.5%, 20 μl) into the left hind paw. The irritation caused by the formalin injection elicits a characteristic biphasic behavioural response, as quantified by the amount of time spent licking the injured paw. The first phase (˜0-10 minutes) represents direct chemical irritation and nociception, whereas the second (˜20-30 minutes) is thought to represent pain of neuropathic origin. The two phases are separated by a quiescent period in which behaviour returns to normal. The effectiveness of test compounds to reduce the painful stimuli is assessed by counting the amount of time spent licking the injured paw in the two phases.

Series [1] relates to patients. Description: Clinical trial in patients, HAM-D sleep items 4, 5 and 6. It counts as in vivo, human. Conditions: 5 and 10 mg daily against placebo, 6 weeks, approximately 100 patients per arm, HBr salt, FIGS. 23-25. The protocol:
(§1) The HAM-D scale may be used to assess the severity of depression in patients by means of a 24 items questionnaire. Item 4, 5 and 6 of the scale relate to how the patients sleep, i.e. is it easy to fall asleep (insomnia Early), does the patient wake up during the night (Insomnia Middle), and does the patient wake up early in the morning (Insomnia Late). The compound was tested at 5 and 10 mg daily against placebo with approximately 100 patients per arm.

The target of the next series is T1, Rat 5-HT3 receptor (Rattus norvegicus, UniProt P35563).
T1 sequence (P35563 24-483): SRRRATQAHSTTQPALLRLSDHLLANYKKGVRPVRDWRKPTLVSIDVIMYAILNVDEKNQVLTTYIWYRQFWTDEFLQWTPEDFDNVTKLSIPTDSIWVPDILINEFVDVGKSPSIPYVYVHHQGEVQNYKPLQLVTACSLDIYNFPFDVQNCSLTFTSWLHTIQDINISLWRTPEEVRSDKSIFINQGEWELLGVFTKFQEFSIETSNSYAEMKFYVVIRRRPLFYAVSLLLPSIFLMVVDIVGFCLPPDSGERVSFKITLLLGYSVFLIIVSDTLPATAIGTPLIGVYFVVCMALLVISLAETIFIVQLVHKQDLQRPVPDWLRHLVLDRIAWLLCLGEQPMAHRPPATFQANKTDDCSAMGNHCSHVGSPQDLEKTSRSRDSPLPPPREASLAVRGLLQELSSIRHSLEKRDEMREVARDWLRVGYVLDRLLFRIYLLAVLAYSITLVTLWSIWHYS
Description: Rat 5-HT3 receptor functional assay (antagonism). Type of series: biochemical.

In a further series the target is T2, human 5HT3 receptor (Homo sapiens, UniProt P46098).
T2 sequence (P46098 24-478): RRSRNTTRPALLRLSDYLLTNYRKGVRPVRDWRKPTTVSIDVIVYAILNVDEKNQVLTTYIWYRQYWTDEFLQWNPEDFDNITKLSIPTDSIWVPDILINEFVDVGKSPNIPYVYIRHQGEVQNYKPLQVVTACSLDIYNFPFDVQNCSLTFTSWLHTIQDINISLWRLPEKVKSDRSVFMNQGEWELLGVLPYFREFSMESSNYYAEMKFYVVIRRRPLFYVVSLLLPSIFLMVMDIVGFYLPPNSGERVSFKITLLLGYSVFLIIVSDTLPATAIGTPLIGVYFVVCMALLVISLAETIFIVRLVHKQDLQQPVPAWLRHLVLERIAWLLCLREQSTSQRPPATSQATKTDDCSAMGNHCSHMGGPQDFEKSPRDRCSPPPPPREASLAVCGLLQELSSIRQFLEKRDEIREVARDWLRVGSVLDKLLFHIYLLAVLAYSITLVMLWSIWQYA
Put plainly: Human 5HT3 receptor in vitro binding assay.

Another series deals with healthy subjects. Description: Clinical trials in healthy subjects, sexual dysfunction reported. Conditions: of 114 healthy subjects exposed. It counts as in vivo, human.
Series [2] concerns the target Human serotonin transporter (Homo sapiens, UniProt P31645). Put plainly: Human serotonin transporter, blockade of 5-HT uptake. Type of series: biochemical.
The next series addresses T3, Human 5-HT3A receptor (Homo sapiens, UniProt P46098).
T3 sequence (P46098 24-478): T2 sequence (P46098 24-478)
Description: Human 5-HT3A receptor functional assay. Type of series: biochemical. The following applies: read-out: IC50 (antagonism in functional assay).

In series [3] the test system is patients. Description: Clinical trial in patients, sexually related adverse effects reported. Conditions: approximately 100 patients. It counts as in vivo, human. The protocol:
as §1
This notion was further supported by clinical trials conducted in patients. The above mentioned clinical trial in patients also captured sexual adverse effects reported by the patients.

The record followed here is US8664225B2, “1-[2-(2,4-dimethylphenylsulfanyl)-phenyl] piperazine as a compound with combined serotonin reuptake, 5-HT3 and 5-HT1A activity for the treatment of pain or residual symptoms in depression relating to sleep and cognition” (H. Lundbeck A/S, priority 2007, dated 2014).

The structures appear in SMILES notation.

In general, IC50 refers to the concentration needed to halve the response being measured. In general, Ki refers to the dissociation constant of the complex between target and ligand, obtained from inhibition or displacement.

Chain of Human serotonin transporter (P31645 whole entry): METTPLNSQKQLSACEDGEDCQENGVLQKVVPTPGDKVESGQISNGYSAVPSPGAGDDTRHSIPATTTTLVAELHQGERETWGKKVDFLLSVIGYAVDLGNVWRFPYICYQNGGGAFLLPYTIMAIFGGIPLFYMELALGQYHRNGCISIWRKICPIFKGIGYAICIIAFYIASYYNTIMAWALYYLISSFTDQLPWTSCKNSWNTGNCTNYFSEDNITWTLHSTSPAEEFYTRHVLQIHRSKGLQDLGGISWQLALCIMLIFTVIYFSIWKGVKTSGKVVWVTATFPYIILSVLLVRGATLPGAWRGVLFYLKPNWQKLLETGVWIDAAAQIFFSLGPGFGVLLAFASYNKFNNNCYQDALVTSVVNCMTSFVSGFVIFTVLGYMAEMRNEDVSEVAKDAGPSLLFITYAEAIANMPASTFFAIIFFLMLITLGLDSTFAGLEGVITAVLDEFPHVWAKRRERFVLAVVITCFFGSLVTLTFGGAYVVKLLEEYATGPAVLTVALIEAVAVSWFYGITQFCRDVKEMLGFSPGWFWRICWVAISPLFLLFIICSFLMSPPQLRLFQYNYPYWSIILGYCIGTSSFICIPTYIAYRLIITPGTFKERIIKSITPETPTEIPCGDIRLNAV

With `Cc1ccc(Sc2ccccc2N2CCNCC2)c(C)c1` [compound I, 1-[2-(2,4-dimethylphenylsulfanyl)-phenyl]piperazine], the “first phase scores (time spent licking the paw, 0-5 minutes)” value with mice (FIG. 18a, highest dose) was “significant reduction”. Further, in the series with mice (FIG. 18b), the “second phase pain scores (time spent licking the paw, 20-30 minutes)” value is listed as “significant reduction”. For the same molecule, the “sleep pattern, HAM-D items 4, 5 and 6 (Insomnia Early, Middle, Late)” value with patients [1] is “large and dose dependent improvement”. Also, at Rat 5-HT3 receptor, the IC50 came to 0.2 nM. The molecule also came in with a Ki on human 5HT3 receptor of 4.5 nM. Besides, the “number of subjects reporting sexual dysfunction” value in the series with healthy subjects was “one”. In series [2], the IC50 is 40 nM. Besides, at Human 5-HT3A receptor, the IC50 was approximately 20 nM. Also, in the series on patients [3] (5 mg daily), the “number of patients reporting Anorgasmia” value stood at 0, the “number of patients reporting Ejaculation delayed” value came to 0, the “number of patients reporting Erectile dysfunction” value is on record as 0 and the “number of patients reporting Libido decreased” value is reported as 1. In the series with patients [3] (5 mg daily), the “number of patients reporting Loss of libido” value was 1, the “number of patients reporting Orgasm abnormal” value is 0 and the “number of patients reporting Orgasmic sensation decreased” value was determined as 0. Moreover, in the series with patients [3] (10 mg daily), the “number of patients reporting Anorgasmia” value came out at 0, the “number of patients reporting Ejaculation delayed” value is 0, the “number of patients reporting Erectile dysfunction” value is on record as 0 and the “number of patients reporting Libido decreased” value stood at 1. In the series on patients [3] (10 mg daily), the “number of patients reporting Loss of libido” value turned out to be 0, the “number of patients reporting Orgasm abnormal” value was found to be 0 and the “number of patients reporting Orgasmic sensation decreased” value is on record as 0.
